Assay results from patent US20170334899A1, “AMINO-SUBSTITUTED ISOTHIAZOLES” (Bayer Pharma Aktiengesellschaft, priority 2014, published 2017).

Tests used:
[1] = system: human cervical tumor cell line HeLa (ATCC CCL-2); experiment: SAC-Formation - Nocodazole-Induced Assay; type: cell-based; settings: Homo sapiens, HeLa, 24 h, HeLa cells, nocodazole 0.1 μg/ml together with test compound, decrease of mitotic cells (phospho-histone H3 Ser10)
Procedure, shortened: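 HeLa cells, plated overnight, were treated 24 h at 37 °C with nocodazole (0.1 μg/ml final) plus test compound (0.005–20 μM, 0.5% DMSO) added at the same time. After fixation, anti-phospho-histone H3 Ser10 and Hoechst staining gave the mitotic cell fraction by imaging. Values came from four-parameter Hill fits.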

[2] = target: T1, catalytic domain of human Bub1 (amino acids 704-1085) (Homo sapiens, UniProt O43683); experiment: Bub1 kinase assay (TR-FRET); type: biochemical; settings: 10 μM ATP, avg, read-out: Bub1 avg (IC50 [mol/l])
T1 construct: catalytic domain of human Bub1 (amino acids 704-1085); His6 (N); made in house; host or cells: insect cells (Hi5)
T1 sequence (O43683 704-1085): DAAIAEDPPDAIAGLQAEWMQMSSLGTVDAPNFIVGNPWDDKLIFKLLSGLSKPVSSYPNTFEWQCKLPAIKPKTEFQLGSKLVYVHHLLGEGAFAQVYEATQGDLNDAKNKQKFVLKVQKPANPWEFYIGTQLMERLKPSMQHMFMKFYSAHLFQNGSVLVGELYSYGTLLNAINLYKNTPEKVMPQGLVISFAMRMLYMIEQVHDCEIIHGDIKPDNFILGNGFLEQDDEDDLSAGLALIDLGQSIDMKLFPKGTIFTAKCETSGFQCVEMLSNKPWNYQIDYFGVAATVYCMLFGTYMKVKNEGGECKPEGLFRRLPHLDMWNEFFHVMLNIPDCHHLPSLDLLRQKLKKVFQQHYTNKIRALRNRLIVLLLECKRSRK
Procedure, shortened: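 Readout is the 665/620 nm TR-FRET ratio from anti-phosphoserine antibody, Eu-labelled anti-mouse IgG and streptavidin-XL665, scaled between no-enzyme and uninhibited controls. Reaction: 1 μM biotinylated peptide, 10 μM ATP, 60 min, 22 °C, after 15 min compound preincubation with His6-Bub1 (704-1085, insect-expressed, ~200 ng/ml).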

SMILES	IC50 [1] [nM]	IC50 [2] [nM]
Cc1nsc(Nc2cnc(C(F)(F)F)cn2)c1C(=O)Nc1ccc(OC2CCN(CC(F)F)C2)nc1 (centres unmarked) [Example 296, N-(6-{[1-(2,2-difluoroethyl)pyrrolidin-3-yl]oxy}pyridin-3-yl)-3-methyl-5-{[5-(trifluoromethyl)pyrazin-2-yl]amino}-1,2-thiazole-4-carboxamide]	180	> 20000
Cc1nsc(Nc2cnc(C(F)(F)F)cn2)c1C(=O)Nc1ccc(OC2CCN(CC(F)(F)F)C2)nc1 (centres unmarked) [Example 297, 3-methyl-N-(6-{[1-(2,2,2-trifluoroethyl)pyrrolidin-3-yl]oxy}pyridin-3-yl)-5-{[5-(trifluoromethyl)pyrazin-2-yl]amino}-1,2-thiazole-4-carboxamide]	80	> 20000
Cc1nsc(Nc2cnc(C(F)(F)F)cn2)c1C(=O)Nc1ccc(OC2CCN(CCC(F)(F)F)C2)nc1 (centres unmarked) [Example 298, 3-methyl-5-{[5-(trifluoromethyl)pyrazin-2-yl]amino}-N-(6-{[1-(3,3,3-trifluoropropyl)pyrrolidin-3-yl]oxy}pyridin-3-yl)-1,2-thiazole-4-carboxamide]	80	> 20000
Cc1nsc(Nc2cnc(C(F)(F)F)cn2)c1C(=O)Nc1ccc(N(C)C)c(OCCCN(C)CC(F)(F)F)c1 [Example 299, N-[4-(dimethylamino)-3-{3-[methyl(2,2,2-trifluoroethyl)amino]propoxy}phenyl]-3-methyl-5-{[5-(trifluoromethyl)pyrazin-2-yl]amino}-1,2-thiazole-4-carboxamide]	210	> 20000
Cc1nsc(Nc2cnc(C(F)(F)F)cn2)c1C(=O)Nc1ccc(F)c(OCCCN(C)CC(F)F)c1 [Example 301, N-(3-{3-[(2,2-difluoroethyl)(methyl)amino]propoxy}-4-fluorophenyl)-3-methyl-5-{[5-(trifluoromethyl)pyrazin-2-yl]amino}-1,2-thiazole-4-carboxamide]	110	> 20000
Cc1nsc(Nc2cnc(C(F)(F)F)cn2)c1C(=O)Nc1ccc(F)c(OCCCN(C)CC(F)(F)F)c1 [Example 302, N-(4-fluoro-3-{3-[methyl(2,2,2-trifluoroethyl)amino]propoxy}phenyl)-3-methyl-5-{[5-(trifluoromethyl)pyrazin-2-yl]amino}-1,2-thiazole-4-carboxamide]	70	> 20000
Cc1nsc(Nc2cnc(C(F)(F)F)cn2)c1C(=O)Nc1ccc(F)c(OCCCN(C)CCC(F)(F)F)c1 [Example 303, N-(4-fluoro-3-{3-[methyl(3,3,3-trifluoropropyl)amino]propoxy}phenyl)-3-methyl-5-{[5-(trifluoromethyl)pyrazin-2-yl]amino}-1,2-thiazole-4-carboxamide]	51	≥ 20000
Cc1nsc(Nc2cncc(C(F)(F)F)n2)c1C(=O)Nc1ccc(OC2CCN(CCC(F)(F)F)CC2)nc1 [Example 304, 3-methyl-5-{[6-(trifluoromethyl)pyrazin-2-yl]amino}-N-(6-{[1-(3,3,3-trifluoropropyl)piperidin-4-yl]oxy}pyridin-3-yl)-1,2-thiazole-4-carboxamide]	130	> 20000
Cc1nsc(Nc2cnc(C(F)(F)F)cn2)c1C(=O)Nc1ccc(F)c(OCCCNCC(F)(F)F)c1 [Example 306, N-(4-fluoro-3-{3-[(2,2,2-trifluoroethyl)amino]propoxy}phenyl)-3-methyl-5-{[5-(trifluoromethyl)pyrazin-2-yl]amino}-1,2-thiazole-4-carboxamide]	24	≥ 20000
Cc1nsc(Nc2cnc(C(F)(F)F)cn2)c1C(=O)Nc1ccc(F)c(OCC2CCN(CC(F)F)CC2)c1 [Example 308, N-(3-{[1-(2,2-difluoroethyl)piperidin-4-yl]methoxy}-4-fluorophenyl)-3-methyl-5-{[5-(trifluoromethyl)pyrazin-2-yl]amino}-1,2-thiazole-4-carboxamide]	31	≥ 20000
Cc1nsc(Nc2cnc(C(F)(F)F)cn2)c1C(=O)Nc1ccc(F)c(OCC2CCN(CCF)CC2)c1 [Example 309, N-(4-fluoro-3-{[1-(2-fluoroethyl)piperidin-4-yl]methoxy}phenyl)-3-methyl-5-{[5-(trifluoromethyl)pyrazin-2-yl]amino}-1,2-thiazole-4-carboxamide]	130	≥ 20000
Cc1nsc(Nc2cnc(C(F)(F)F)cn2)c1C(=O)Nc1ccc(F)c(OCC2CCN(CC(F)(F)F)CC2)c1 [Example 310, N-(4-fluoro-3-{[1-(2,2,2-trifluoroethyl)piperidin-4-yl]methoxy}phenyl)-3-methyl-5-{[5-(trifluoromethyl)pyrazin-2-yl]amino}-1,2-thiazole-4-carboxamide]	59	≥ 20000
Cc1nsc(Nc2cnc(C(F)(F)F)cn2)c1C(=O)Nc1ccc(F)c(OCC2CCN(C(CF)CF)CC2)c1 [Example 312, N-(3-{[1-(1,3-difluoropropan-2-yl)piperidin-4-yl]methoxy}-4-fluorophenyl)-3-methyl-5-{[5-(trifluoromethyl)pyrazin-2-yl]amino}-1,2-thiazole-4-carboxamide]	82	≥ 20000

Now from value to compound:

IC50 [1] [nM]	IC50 [2] [nM]	SMILES
450	> 20000	Cc1nsc(Nc2cnc(C(F)(F)F)cn2)c1C(=O)Nc1ccc(OCCCNCCC(F)(F)F)nc1 [Example 294, 3-methyl-5-{[5-(trifluoromethyl)pyrazin-2-yl]amino}-N-(6-{3-[(3,3,3-trifluoropropyl)amino]propoxy}pyridin-3-yl)-1,2-thiazole-4-carboxamide]
590	> 20000	Cc1nsc(Nc2cnc(C(F)(F)F)cn2)c1C(=O)Nc1ccc(OC2CCN(CCF)C2)nc1 (centres unmarked) [Example 295, N-(6-{[1-(2-fluoroethyl)pyrrolidin-3-yl]oxy}pyridin-3-yl)-3-methyl-5-{[5-(trifluoromethyl)pyrazin-2-yl]amino}-1,2-thiazole-4-carboxamide]
440	> 20000	Cc1nsc(Nc2cnc(C(F)(F)F)cn2)c1C(=O)Nc1ccc(N(C)C)c(OCCCN(C)CCC(F)(F)F)c1 [Example 300, N-[4-(dimethylamino)-3-{3-[methyl(3,3,3-trifluoropropyl)amino]propoxy}phenyl]-3-methyl-5-{[5-(trifluoromethyl)pyrazin-2-yl]amino}-1,2-thiazole-4-carboxamide]
510	19000	Cc1nsc(Nc2cnc(C(F)(F)F)cn2)c1C(=O)Nc1ccc(OCCNCC(F)F)nc1 [Example 305, N-(6-{2-[(2,2-difluoroethyl)amino]ethoxy}pyridin-3-yl)-3-methyl-5-{[5-(trifluoromethyl)pyrazin-2-yl]amino}-1,2-thiazole-4-carboxamide]
99	≥ 20000	Cc1nsc(Nc2cnc(C(F)(F)F)cn2)c1C(=O)Nc1ccc(F)c(OCCCNCCC(F)(F)F)c1 [Example 307, N-(4-fluoro-3-{3-[(3,3,3-trifluoropropyl)amino]propoxy}phenyl)-3-methyl-5-{[5-(trifluoromethyl)pyrazin-2-yl]amino}-1,2-thiazole-4-carboxamide]
130	> 20000	Cc1nsc(Nc2cnc(C(F)(F)F)cn2)c1C(=O)Nc1ccc(F)c(OCC2CCN(CCC(F)(F)F)CC2)c1 [Example 311, N-(4-fluoro-3-{[1-(3,3,3-trifluoropropyl)piperidin-4-yl]methoxy}phenyl)-3-methyl-5-{[5-(trifluoromethyl)pyrazin-2-yl]amino}-1,2-thiazole-4-carboxamide]
